Test results: paper PMC6749450, “Probing the Effects of Pyrimidine Functional Group Switches on Acyclic Fleximer Analogues for Antiviral Activity” (Molecules, 2019)

Key:
Ebola virus (EBOV) = experiment: microbe, parasite or virus in culture; assay type: cell-based, EBOV-Makona; settings: for EC50: Zaire ebolavirus, Huh-7, 72 h, read-out: EC50: effective concentration showing 50% inhibition of virus-expressed ZsGreen fluorescence
coronaviruses = settings: cited from earlier work
filoviruses = settings: cited from earlier work
flaviviruses = settings: ref unpublished results; cited from earlier work

With `COc1nc(N)ncc1-c1cn(COCCOC(C)=O)cn1` [1-Ac] the “activity against EBOV (in words)” value (Ebola virus (EBOV)) was “not active against EBOV” and the EC50 (Ebola virus (EBOV)) was over 100 µM.

In the case of `CCC(=O)OCCOCn1cnc(-c2cnc(N)nc2OC)c1` [1-EtAc, 2-((4-(2-Amino-4-methoxypyrimidin-5-yl)-1H-imidazol-1-yl)methoxy)ethyl propionate], the EC50 (Ebola virus (EBOV)) is reported as 62.2 ± 19 µM.

In the case of `COc1nc(N)ncc1-c1cn(COCCOC(=O)C(C)C)cn1` [1-^iPrAc, 2-((4-(2-Amino-4-methoxypyrimidin-5-yl)-1H-imidazol-1-yl)methoxy)ethyl isobutyrate], the EC50 (Ebola virus (EBOV)) is reported as over 100 µM.

In the case of `COc1nc(N)ncc1-c1cn(COCCOC(=O)C(C)(C)C)cn1` [1-^tBuAc, 2-((4-(2-Amino-4-methoxypyrimidin-5-yl)-1H-imidazol-1-yl)methoxy)ethyl pivalate], the EC50 (Ebola virus (EBOV)) is reported as 7.21 ± 1.85 µM.

With `COc1ncc(-c2cn(COCCOC(C)=O)cn2)c(OC)n1` [2-Ac] the EC50 (Ebola virus (EBOV)) was 16.3 ± 11.5 µM.

`CCC(=O)OCCOCn1cnc(-c2cnc(OC)nc2OC)c1` [2-EtAc, 2-((4-(2,4-Dimethoxypyrimidin-5-yl)-1H-imidazol-1-yl)methoxy)ethyl propionate] gave an EC50 (Ebola virus (EBOV)) of over 100 µM.

For `COc1ncc(-c2cn(COCCOC(=O)C(C)C)cn2)c(OC)n1` [2-^iPrAc, 2-((4-(2,4-Dimethoxypyrimidin-5-yl)-1H-imidazol-1-yl)methoxy)ethyl isobutyrate], the EC50 (Ebola virus (EBOV)) was 32 ± 9.12 µM.

For `COc1ncc(-c2cn(COCCOC(=O)C(C)(C)C)cn2)c(OC)n1` [2-^tBuAc, 2-((4-(2,4-Dimethoxypyrimidin-5-yl)-1H-imidazol-1-yl)methoxy)ethyl pivalate], the EC50 (Ebola virus (EBOV)) was 81.3 ± 10.2 µM.

In the case of `COc1ncncc1-c1cn(COCCOC(C)=O)cn1` [3-Ac, 2-((4-(4-Methoxypyrimidin-5-yl)-1H-imidazol-1-yl)methoxy)ethyl acetate], the EC50 (Ebola virus (EBOV)) is reported as 35.4 ± 20.4 µM.

In the case of `CCC(=O)OCCOCn1cnc(-c2cncnc2OC)c1` [3-EtAc, 2-((4-(4-Methoxypyrimidin-5-yl)-1H-imidazol-1-yl)methoxy)ethyl propionate], the EC50 (Ebola virus (EBOV)) is reported as 51.9 ± 19.6 µM.

Compound `COc1ncncc1-c1cn(COCCOC(=O)C(C)C)cn1` [3-^iPrAc, 2-((4-(4-Methoxypyrimidin-5-yl)-1H-imidazol-1-yl)methoxy)ethyl isobutyrate] has an EC50 (Ebola virus (EBOV)) of 38.3 ± 28.2 µM.

In the case of `COc1ncncc1-c1cn(COCCOC(=O)C(C)(C)C)cn1` [3-^tBuAc, 2-((4-(4-Methoxypyrimidin-5-yl)-1H-imidazol-1-yl)methoxy)ethyl pivalate], the EC50 (Ebola virus (EBOV)) is reported as 51.4 ± 10 µM.

In the case of `CC(=O)OCCOCn1cnc(-c2cnc(N)nc2)c1` [4-Ac, 2-((4-(2-Aminopyrimidin-5-yl)-1H-imidazol-1-yl)methoxy)ethyl acetate], the EC50 (Ebola virus (EBOV)) is reported as 52.9 ± 28.2 µM.

Compound `CCC(=O)OCCOCn1cnc(-c2cnc(N)nc2)c1` [4-EtAc, 2-((4-(2-Aminopyrimidin-5-yl)-1H-imidazol-1-yl)methoxy)ethyl propionate] has an EC50 (Ebola virus (EBOV)) of over 100 µM.

For `CC(C)C(=O)OCCOCn1cnc(-c2cnc(N)nc2)c1` [4-^iPrAc, 2-((4-(2-Aminopyrimidin-5-yl)-1H-imidazol-1-yl)methoxy)ethyl isobutyrate], the EC50 (Ebola virus (EBOV)) was 54 ± 23.7 µM.

Compound `CC(C)(C)C(=O)OCCOCn1cnc(-c2cnc(N)nc2)c1` [4-^tBuAc, 2-((4-(2-Aminopyrimidin-5-yl)-1H-imidazol-1-yl)methoxy)ethyl pivalate] has an EC50 (Ebola virus (EBOV)) of 34.4 ± 20 µM.

In the case of `CC(=O)OCCOCn1cnc(-c2cncnc2N)c1` [5-Ac, 2-((4-(4-Aminopyrimidin-5-yl)-1H-imidazol-1-yl)methoxy)ethyl acetate], the EC50 (Ebola virus (EBOV)) is reported as over 100 µM.

In the case of `CCC(=O)OCCOCn1cnc(-c2cncnc2N)c1` [5-EtAc, 2-((4-(4-Aminopyrimidin-5-yl)-1H-imidazol-1-yl)methoxy)ethyl propionate], the EC50 (Ebola virus (EBOV)) is reported as over 100 µM.

`CC(C)C(=O)OCCOCn1cnc(-c2cncnc2N)c1` [5-^iPrAc, 2-((4-(4-Aminopyrimidin-5-yl)-1H-imidazol-1-yl)methoxy)ethyl isobutyrate] gave an EC50 (Ebola virus (EBOV)) of over 100 µM.

`CC(C)(C)C(=O)OCCOCn1cnc(-c2cncnc2N)c1` [5-^tBuAc, 2-((4-(4-Aminopyrimidin-5-yl)-1H-imidazol-1-yl)methoxy)ethyl pivalate] gave an EC50 (Ebola virus (EBOV)) of 72.3 ± 18.7 µM.

In the case of `COc1nc(N)ncc1-c1cn(COCCO)cn1` [compound 1], the EC50 (Ebola virus (EBOV)) is given as 1.49 ± 0.98 µM, the “antiviral activity against coronaviruses” value (coronaviruses) is given as “low micromolar activity” and the “antiviral activity against filoviruses” value (filoviruses) is given as “low micromolar activity”. For the same compound, the “antiviral activity against flaviviruses” value (flaviviruses) was “low micromolar activity”.

`COc1ncc(-c2cn(COCCO)cn2)c(OC)n1` [compound 2] gave an EC50 (Ebola virus (EBOV)) of 23.4 ± 20.3 µM.

For `COc1ncncc1-c1cn(COCCO)cn1` [compound 3, 2-((4-(4-Methoxypyrimidin-5-yl)-1H-imidazol-1-yl)methoxy)ethan-1-ol], the EC50 (Ebola virus (EBOV)) was 78.9 ± 17.1 µM.

In the case of `Nc1ncc(-c2cn(COCCO)cn2)cn1` [compound 4, 2-((4-(2-Aminopyrimidin-5-yl)-1H-imidazol-1-yl)methoxy)ethan-1-ol], the “activity against EBOV (in words)” value (Ebola virus (EBOV)) is reported as “did not display any activity against EBOV” and the EC50 (Ebola virus (EBOV)) is reported as over 100 µM.

For `Nc1ncncc1-c1cn(COCCO)cn1` [compound 5, 2-((4-(4-Aminopyrimidin-5-yl)-1H-imidazol-1-yl)methoxy)ethan-1-ol], the “activity against EBOV (in words)” value (Ebola virus (EBOV)) was “did not display any activity against EBOV” and the EC50 (Ebola virus (EBOV)) was over 100 µM.
